In PubChem BioAssay AID1963447 (Molecular Pharmacology Branch, DTP, NCI, 2024) one finds IC50 and viability, T/C data, which are given here for five compounds.

Each structure is given as a SMILES string. Where “and” joins values, the source holds several entries; their conditions need not be identical. Equal values may be shown once.

This test has as its system 885512-296-R-J2-PDC complex spheroid growth, % test/control. Briefly: Anticancer human tumor 885512-296-R-J2-PDC patient-derived breast carcinoma cell line growth inhibition [Asc]. The note with it: for viability, T/C: stronger effect = lower value. In short, it runs like this: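 Complex solid-tumor spheroids incorporating human endothelial and mesenchymal stem cells received single agents or combinations over half-log dilution ranges anchored to clinical Cmax.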

The mark [1] stands for this setting: curve of first compound, second compound 0.01 µM.
[2] abbreviates: curve of first compound, second compound 0.0316 µM.
The mark [3] stands for this setting: curve of first compound, second compound 0.1 µM.
The mark [4] stands for this setting: curve of first compound, second compound 0.316 µM.
[5] abbreviates: curve of first compound, second compound 1 µM.
Where [6] appears, read: second compound 0.01 µM, first compound 0.0316 µM.
[7] abbreviates: second compound 0.01 µM, first compound 0.1 µM.
Setting [8] is: second compound 0.01 µM, first compound 0.316 µM.
Setting [9] is: second compound 0.01 µM, first compound 1 µM.
Where [10] appears, read: second compound 0.0316 µM, first compound 0.0316 µM.
Where [11] appears, read: second compound 0.0316 µM, first compound 0.1 µM.
The mark [12] stands for this setting: second compound 0.0316 µM, first compound 0.316 µM.
Setting [13] is: second compound 0.0316 µM, first compound 1 µM.
Where [14] appears, read: second compound 0.1 µM, first compound 0.0316 µM.
The mark [15] stands for this setting: second compound 0.1 µM, first compound 0.1 µM.
Setting [16] is: second compound 0.1 µM, first compound 0.316 µM.
Where [17] appears, read: second compound 0.1 µM, first compound 1 µM.
Where [18] appears, read: second compound 0.316 µM, first compound 0.0316 µM.
The mark [19] stands for this setting: second compound 0.316 µM, first compound 0.1 µM.
The mark [20] stands for this setting: second compound 0.316 µM, first compound 0.316 µM.
[21] abbreviates: second compound 0.316 µM, first compound 1 µM.
The mark [22] stands for this setting: second compound 1 µM, first compound 0.0316 µM.
Where [23] appears, read: second compound 1 µM, first compound 0.1 µM.
[24] abbreviates: second compound 1 µM, first compound 0.316 µM.
[25] abbreviates: second compound 1 µM, first compound 1 µM.
Where [26] appears, read: second compound 0.01 µM, first compound 0.00316 µM.
Setting [27] is: second compound 0.01 µM, first compound 0.01 µM.
[28] abbreviates: second compound 0.0316 µM, first compound 0.00316 µM.
Setting [29] is: second compound 0.0316 µM, first compound 0.01 µM.
[30] abbreviates: second compound 0.1 µM, first compound 0.00316 µM.
[31] abbreviates: second compound 0.1 µM, first compound 0.01 µM.
Where [32] appears, read: second compound 0.316 µM, first compound 0.00316 µM.
Where [33] appears, read: second compound 0.316 µM, first compound 0.01 µM.
The mark [34] stands for this setting: second compound 1 µM, first compound 0.00316 µM.
[35] abbreviates: second compound 1 µM, first compound 0.01 µM.
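Note: spheroids exposed to compounds for seven days.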
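Throughout, for viability, T/C: 100% = DMSO vehicle control wells.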

As for `C=CC(=O)N1CCN(c2nc(=O)n(-c3c(C)ccnc3C(C)C)c3nc(-c4c(O)cccc4F)c(F)cc23)C(C)C1` (centres undefined) + CNC(C)C(=O)NC1CN(S(=O)(=O)c2cccc(S(=O)(=O)N3CCC4CCC(C(=O)NC(c5ccccc5)c5ccccc5)N4C(=O)C(NC(=O)C(C)NC)C3)c2)CCC2CCC(C(=O)NC(c3ccccc3)c3ccccc3)N2C1=O, the IC50 by setting is: under setting [1], over 10000 nM; under setting [2], over 10000 nM; under setting [3], over 10000 nM; under setting [4], over 10000 nM; under setting [5], over 10000 nM. Besides, the viability, T/C was 88.2% under setting [6]; 80.9% under setting [7]; 101% under setting [8]; 81.3% under setting [9]; 90.6% (second compound 0.01 µM, first compound 3.16 µM); 64.2% (second compound 0.01 µM, first compound 10 µM). Also, the viability, T/C by setting is: under setting [10], 90.3%; under setting [11], 104%; under setting [12], 96.6%; under setting [13], 97.2%; (second compound 0.0316 µM, first compound 3.16 µM) 92.6%; (second compound 0.0316 µM, first compound 10 µM) 68.5%. Further, the viability, T/C was 111% under setting [14]; 109% under setting [15]; 98% under setting [16]; 98.6% under setting [17]; 87.7% (second compound 0.1 µM, first compound 3.16 µM); 66.8% (second compound 0.1 µM, first compound 10 µM). Moreover, the viability, T/C was 104% under setting [18]; 106% under setting [19]; 98.8% under setting [20]; 100% under setting [21]; 84.4% (second compound 0.316 µM, first compound 3.16 µM); 68.6% (second compound 0.316 µM, first compound 10 µM). The viability, T/C was 105% under setting [22]; 103% under setting [23]; 104% under setting [24]; 109% under setting [25]; 79.2% (second compound 1 µM, first compound 3.16 µM); 59% (second compound 1 µM, first compound 10 µM).
As to `O=C(c1cc(Cc2n[nH]c(=O)c3ccccc23)ccc1F)N1CCN(C(=O)C2CC2)CC1`, the viability, T/C runs as follows: (compound 0.0316 µM) 99.2% and 96.5% and 98%; (compound 0.1 µM) 113% and 117% and 108%; (compound 0.316 µM) 102% and 115% and 97.6%; (compound 1 µM) 98.8% and 98.3% and 107%; (compound 3.16 µM) 71.3% and 71.5% and 75.3%; (compound 10 µM) 19.2% and 17.5% and 20.8%. For the same compound, the half-maximal inhibitory concentration (IC50) (curve of compound) was 5070 nM and 4970 nM and 5400 nM.
Regarding `Cc1nc(N2CCC3(CC2)COC(C)C3N)c(CO)nc1Sc1ccnc(N)c1Cl` (centres undefined), the viability, T/C reads like this: (compound 0.00949 µM) 82.5% and 83.1% and 76%; (compound 0.03 µM) 68.2% and 68.5% and 70.9%; (compound 0.0949 µM) 59.3% and 59.5% and 63.1%; (compound 0.3 µM) 54.2% and 53% and 54%; (compound 0.949 µM) 45.2% and 48% and 39.2%; (compound 3 µM) 36.6% and 38.9% and 36.2%. Besides, the IC50 (curve of compound) was 408 nM and 453 nM and 373 nM.
As for `NC1CCC(NC2CC2c2ccccc2)CC1` (centres undefined) + CNC(C)C(=O)NC1CN(S(=O)(=O)c2cccc(S(=O)(=O)N3CCC4CCC(C(=O)NC(c5ccccc5)c5ccccc5)N4C(=O)C(NC(=O)C(C)NC)C3)c2)CCC2CCC(C(=O)NC(c3ccccc3)c3ccccc3)N2C1=O, the half-inhibitory concentration (IC50) under setting [1] is over 100 nM; the IC50 under setting [2] was over 100 nM; the IC50 under setting [3] was over 100 nM; the IC50 under setting [4] is over 100 nM; the concentration for half-maximal inhibition (IC50) under setting [5] is over 100 nM. Further, the viability, T/C by setting is: (second compound 0.01 µM, first compound 0.000316 µM) 114%; (second compound 0.01 µM, first compound 0.001 µM) 116%; under setting [26], 111%; under setting [27], 105%; under setting [6], 111%; under setting [7], 113%. The viability, T/C is 107% (second compound 0.0316 µM, first compound 0.000316 µM); 112% (second compound 0.0316 µM, first compound 0.001 µM); 107% under setting [28]; 113% under setting [29]; 110% under setting [10]; 110% under setting [11]. Besides, the viability, T/C was 107% (second compound 0.1 µM, first compound 0.000316 µM); 91% (second compound 0.1 µM, first compound 0.001 µM); 109% under setting [30]; 106% under setting [31]; 104% under setting [14]; 111% under setting [15]. Moreover, the viability, T/C runs as follows: (second compound 0.316 µM, first compound 0.000316 µM) 108%; (second compound 0.316 µM, first compound 0.001 µM) 110%; under setting [32], 112%; under setting [33], 105%; under setting [18], 108%; under setting [19], 110%. The viability, T/C runs as follows: (second compound 1 µM, first compound 0.000316 µM) 111%; (second compound 1 µM, first compound 0.001 µM) 104%; under setting [34], 110%; under setting [35], 98.6%; under setting [22], 105%; under setting [23], 109%.
With `CCN1CCN(Cc2ccc(Nc3ncc(F)c(-c4cc(F)c5nc(C)n(C(C)C)c5c4)n3)nc2)CC1` + CNC(C)C(=O)NC1CN(S(=O)(=O)c2cccc(S(=O)(=O)N3CCC4CCC(C(=O)NC(c5ccccc5)c5ccccc5)N4C(=O)C(NC(=O)C(C)NC)C3)c2)CCC2CCC(C(=O)NC(c3ccccc3)c3ccccc3)N2C1=O, the IC50 reads like this: under setting [1], 207 nM; under setting [2], over 1000 nM; under setting [3], 742 nM; under setting [4], over 1000 nM; under setting [5], over 1000 nM. The viability, T/C is 79.9% under setting [26]; 104% under setting [27]; 82.6% under setting [6]; 56.7% under setting [7]; 49.2% under setting [8]; 26% under setting [9]. The viability, T/C is, setting by setting: under setting [28], 102%; under setting [29], 106%; under setting [10], 104%; under setting [11], 82.6%; under setting [12], 71.6%; under setting [13], 49.9%. Further, the viability, T/C under setting [30] was 115%; the viability, T/C under setting [31] was 107%; the viability, T/C under setting [14] is 116%; the viability, T/C under setting [15] is 91.4%; the viability, T/C under setting [16] was 71.3%; the viability, T/C under setting [17] was 42.7%. For the same compound, the viability, T/C reads like this: under setting [32], 110%; under setting [33], 112%; under setting [18], 103%; under setting [19], 90.8%; under setting [20], 64.6%; under setting [21], 50.3%. The viability, T/C reads like this: under setting [34], 112%; under setting [35], 112%; under setting [22], 111%; under setting [23], 87.5%; under setting [24], 87.6%; under setting [25], 68.3%.

What is called IC50 is the concentration that inhibits the measured activity by half. By viability, T/C is commonly meant the result in the treated group divided by that in the control group, in per cent.
